According to US11338021B2, “Combination therapies” (ENZYMATICA AB, priority 2015, dated 2022):
“Also recorded” adds a separate entry of the source.

Tests used:
Format in all cases: cell-based
[1] = test system: biofilms using a combination of Streptococcus pneumonia and Streptococcus mitis; assay: Dispersal of pre-grown model (super) biofilm in microtiter plate, crystal violet staining, absorbance at 492 nm; conditions: for biofilm disruption by antibiotic and cod trypsin combination compared with antibiotic alone: FIG. 1, Student's t test; for effect of antibiotic alone on biofilm formation: biofilms grown for 4 hours; for disruption of super biofilm by cod trypsins alone: FIGS. 4-6, compared with placebo, treated for 2 minutes
Protocol: Effects of combination of cod trypsins with selected antibiotics on biofilm dispersal. […] Biofilms using a combination of Streptococcus pneumonia and Streptococcus mitis were grown in a microtiter plate and used as a model for biofilm. The biofilm was treated with an antibiotic or a combination of the antibiotics and cod trypsins. The biofilms were stained with crystal violet followed by dissolution with acetic acid. Biofilm formation was measured as absorbance at 492 nm, and normalized to untreated biofilm. […] P values above bars indicate significance of difference between the two treatments as evaluated by Student's t test.
Effects of combination of cod trypsins with selected antibiotics on biofilm dispersal. […] Biofilms using a combination of Streptococcus pneumonia and Streptococcus mitis were grown in a microtiter plate and used as a model biofilm. The biofilm was treated with cod trypsins, an antibiotic, or a combination of the two. The biofilms were stained with crystal violet followed by dissolution with acetic acid. Biofilm formation was measured as absorbance at 492 nm, and normalized to untreated biofilm. […] P values above bars indicate significance of effects as evaluated by ANOVA analysis.
Each column represents one type of treatment or treatment combination, with the rows representing decreasing concentrations from top to bottom. After treatment biofilms are stained with crystal violet, with a darker colour representing more remaining biofilm. […] The lowest row represents blanks, where the first six holes represent untreated biofilm and the next six represent no biofilm.
Effects of cod trypsins on the super biofilm presented visually after biofilm staining with crystal violet. […] The super biofilm with a combination of Streptococcus pneumonia and Streptococcus mitis were grown in a microtiter plate. The biofilm was treated with cod trypsins or placebo for 2 minutes and the wells were stained to measure the presence (black wells) of biofilm or its absence (clear wells) after treatment.
After treatment the biofilms were stained with crystal violet, with a darker colour representing more remaining biofilm.
Effects of cod trypsins on the super biofilm as measured by spectrophotometry after crystal violet staining and dissolution in acetic acid. […] Biofilms using a combination of Streptococcus pneumonia and Streptococcus mitis were grown in a microtiter plate. The biofilm was treated with cod trypsins or placebo and the wells were stained with crystal violet followed by dissolution with acetic acid. Biofilm formation was measured as absorbance at 492 nm, and normalized to untreated biofilm. […] Data is presented as a bar-plot with the error bars indicating the standard error of the mean (SEM). Data for dilutions of placebo and cod trypsins treated bacterial biofilms are placed next to each other. The Log reduction of biofilm formation of Penzyme compared to that of placebo in the same dilution is above the bars, as is the level of significance indicated by asterisks (*), where * represents a P of <0.05, ** a P<0.01 and *** a P<0.001. Students T-test was used to calculate the significance.
Log reduction of super biofilm by cod trypsins at different concentrations. […] Biofilms using a combination of Streptococcus pneumonia and Streptococcus mitis were grown in a microtiter plate. The biofilm was treated with cod trypsins or placebo and the wells were stained with crystal violet followed by dissolution with acetic acid. Biofilm formation was measured as absorbance at 492 nm, and the reduction compared to placebo treated biofilm on a logarithmic scale.
Biofilms using a combination of Streptococcus pneumonia and Streptococcus mitis were grown in a microtiter plate. The biofilm was treated with an antibiotic or a combination of the antibiotics and cod trypsins. The biofilms were stained with crystal violet followed by dissolution with acetic acid.

[2] = test system: biofilm forming bacteria Streptococcus pneumonia and Streptococcus mitis; assay: Pre-treatment of planktonic bacteria before biofilm formation (4 hours), crystal violet staining, absorbance at 492 nm; conditions: FIGS. 7-8, compared with placebo, biofilms grown 4 hours, normalized to untreated biofilm
Protocol: Effects of cod trypsins pre-treatment on biofilm formation. […] Biofilms using a combination of Streptococcus pneumonia and Streptococcus mitis were grown in a microtiter plate after being briefly treated with cod trypsins or placebo. After allowing the biofilms to grow for 4 hours the wells were stained with crystal violet followed by dissolution with acetic acid. Biofilm formation was measured as absorbance at 492 nm, and normalized to untreated biofilm. […] Data is presented as a boxplot where the top of the rectangle indicates the third quartile, a horizontal line near the middle of the rectangle indicates the median, and the bottom of the rectangle indicates the first quartile. A vertical line extends from the top of the rectangle to indicate the maximum value, and another vertical line extends from the bottom of the rectangle to indicate the minimum value.
Effects of cod trypsin pre-treatment on biofilm formation. […] Biofilms using a combination of Streptococcus pneumonia and Streptococcus mitis were grown in a microtiter plate after being treated with cod trypsins or placebo. After allowing the biofilms to grow for 4 hours the wells were stained with crystal violet followed by dissolution with acetic acid. Biofilm formation was measured as absorbance at 492 nm, and normalized to untreated biofilm. […] Statistical significance of the difference, as evaluated by Student's t test, is indicated by symbols above the boxes where n.s. is p >0.05, * is p<0.05, ** p<0.01, and *** p<0.001.
After allowing the biofilms to grow for 4 hours the wells were stained with crystal violet followed by dissolution with acetic acid. Biofilm formation was measured as absorbance at 492 nm, and normalized to untreated biofilm. […] Cod trypsins prevent biofilm formation in a concentration dependent manner. […] Biofilm formation was measured as absorbance at 492 nm, and normalized to untreated biofilm. […] Statistical significance of the difference, as evaluated by Student's t test, is indicated by symbols above the boxes where n.s. is p >0.05, * is p<0.05, ** p<0.01, and *** p<0.001.

[3] = test system: bacteria; assay: Lethality of cod trypsin to bacteria (statement, no method given)
[4] = absorbance at 492 nm normalized to untreated biofilm
[5] = FIG. 3, 96 well plate image, crystal violet

With `CC[C@H]1OC(=O)[C@H](C)[C@@H](O[C@H]2C[C@@](C)(OC)[C@@H](O)[C@H](C)O2)[C@H](C)[C@@H](O[C@@H]2O[C@H](C)C[C@H](N(C)C)[C@H]2O)[C@](C)(O)C[C@@H](C)C(=O)[C@H](C)[C@@H](O)[C@]1(C)O` [erythromycin] the “biofilm disruption by antibiotic and cod trypsin combination compared with antibiotic alone” value [1, 4] was “more effective in disrupting bacterial biofilm than antibiotics alone”.

For `CN[C@H](CC(C)C)C(=O)N[C@H]1C(=O)N[C@@H](CC(N)=O)C(=O)N[C@H]2C(=O)N[C@H]3C(=O)N[C@H](C(=O)N[C@H](C(=O)O)c4cc(O)cc(O)c4-c4cc3ccc4O)[C@H](O)c3ccc(c(Cl)c3)Oc3cc2cc(c3O[C@@H]2O[C@H](CO)[C@@H](O)[C@H](O)[C@H]2O[C@H]2C[C@](C)(N)[C@H](O)[C@H](C)O2)Oc2ccc(cc2Cl)[C@H]1O` [vancomycin], the “biofilm disruption by antibiotic and cod trypsin combination compared with antibiotic alone” value [1, 4] was “not to have significantly increased efficacy against the model biofilm when combined with trypsin”, the “effect of antibiotic in combination with cod trypsin on efficacy of cod trypsin” value [1, 5] was “can increase the efficacy of cod trypsin” and the “effect of antibiotic alone on biofilm formation” value [1, 5] was “the drug alone appears to increase biofilm formation”. The “effect of antibiotic alone on biofilm formation” value ([1]; FIG. 3, 96 well plate image, crystal violet, listed as Vancomycin) was “may increase biofilm formation”.

`CO/N=C(\C(=O)N[C@@H]1C(=O)N2C(C(=O)O)=C(COC(C)=O)CS[C@H]12)c1csc(N)n1` [cefotaxime] was tested, and the “biofilm disruption by antibiotic and cod trypsin combination compared with antibiotic alone” value [1, 4] was “more effective in disrupting bacterial biofilm than antibiotics alone” and the “biofilm disruption by combination of cod trypsin and antibiotic compared with either alone” value ([1]; FIG. 2, absorbance at 492 nm normalized to untreated biofilm, ANOVA) was “more effective in disrupting bacterial biofilm than either cod trypsins or antibiotics alone”.

In the case of `Cc1onc(-c2ccccc2)c1C(=O)N[C@@H]1C(=O)N2[C@@H]1SC(C)(C)[C@@H]2C(=O)O` [oxacillin], the “biofilm disruption by antibiotic and cod trypsin combination compared with antibiotic alone” value [1, 4] is reported as “more effective in disrupting bacterial biofilm than antibiotics alone”.

B1: cod trypsin: trypsin from Atlantic cod (Gadus morhua), a polypeptide having serine protease activity (protein, listed as Gadus morhua)
chain: IVGGYECTKHSQAHQVSLNSGYHFCGGSLVSKDWVVSAAHCYKSVLRVRLGEHHIRVNEGTEQYISSSSVIRHPNYSSYNINNDIMLIKLTKPATLNQYVHAVALPTECAADATMCTVSGWGNTMSSVADGDKLQCLSLPILSHADCANSYPGMITQSMFCAGYLEGGKDSCQGDSGGPVVCNGVLQGVVSWGYGCAERDHPGVYAKVCVLSGWVRDTMANY
B1 was tested, and the “prevention of biofilm formation by pre-treatment of bacteria” value (“prevention of biofilm formation” below) [2] was “can prevent the formation of biofilms in a concentration dependent manner”, the “prevention of biofilm formation” value ([2]; listed as cod trypsin composition) was “very effective in preventing bacterial biofilm formation” and the “prevention of biofilm formation” value ([2]; listed as cod trypsins) was “very effective in preventing bacterial biofilm formation”. The “lethality to the bacteria” value [3] was “not lethal to the bacteria”, the “time in which cod trypsins disrupt bacterial biofilm” value ([1]; FIG. 6, at concentrations 8 U/g or higher) was “less than 2 minutes” and the “concentrations at which cod trypsins are very effective in disrupting bacterial biofilm” value ([1]; FIG. 6, log reduction compared to placebo treated biofilm) was no less than 8 U/g. For the same molecule, the “disruption of super biofilm by cod trypsins alone” value [1] was “effective at removing biofilms at the higher concentration” and the “disruption of super biofilm by cod trypsins alone” value ([1]; listed as cod trypsins) was “very effective in disrupting the super biofilm; also recorded: very effective in disrupting bacterial biofilm; also recorded: disrupt the super biofilm in a concentration dependent manner; also recorded: quite capable of both removing bacteria from and partially prevent reattachment of bacteria to surfaces in a concentration dependent manner”.
